Source: patent US20150209794A1, “MODIFIED MICRONIZATION DEVICE AND METHOD THEREOF” (OEKOMINERAL AG, priority 2014, published 2015)

Assay: Amorphous content / crystalline disorder by isothermal calorimetry (IC TAM 3)
Type: physicochemical
Conditions: ursolic acid, five repeated micronization procedures
Method: 1 kg of each sample of ursolic acid (98% purity, Sigma Aldrich) of an average particle size of […] was micronized five times in devices having different hitting elements. The discs were cooled through a feeder opening with liquid nitrogen spraying to avoid overheating of the heat-sensitive substance.
The micronized samples were analyzed for particle size (Malvern MasterSizer 2000), while the extent of crystalline disorder of particles was quantified with isothermal calorimetry (IC TAM 3, TA instruments, USA). Data was recorded with proprietary software Digitam 4.2.

Amorphous Content (MICRONIZATION-1): 3.68 %, w/w
Amorphous Content (MICRONIZATION-2): 6.12 %, w/w
Amorphous Content (MICRONIZATION-3): 19.23 %, w/w
SMILES: C[C@H]1[C@H](C)CC[C@]2(C(=O)O)CC[C@]3(C)C(=CC[C@@H]4[C@@]5(C)CC[C@H](O)C(C)(C)[C@@H]5CC[C@]43C)[C@H]12 [ursolic acid]
